Experiment [1] addresses T1, Histone deacetylase 1 (Homo sapiens, UniProt Q13547). The experiment in a line: Inhibition of human recombinant HDAC1 using ZMAL (Z-(Ac)Lys-AMC) as fluorogenic substrate preincubated for 5 mins followed by substrate addition and measured after 1 hr by fluorescence based analysis.
Experiment [2] concerns the target T2, Histone deacetylase 2 (Homo sapiens, UniProt Q92769). The experiment in a line: Inhibition of human full length recombinant HDAC2 expressed in baculovirus infected Sf9 cells using RHKKAc as substrate preincubated for 10 mins followed by substrate addition and measured after 2 hrs by fluorescence based analysis.
Experiment [3] concerns the target T3, Histone deacetylase 3 (Homo sapiens, UniProt O15379). Kind of experiment: Inhibition of recombinant full length human HDAC3 expressed in insect Sf9 cells.
A further experiment concerns the target T4, Histone deacetylase 11 (Homo sapiens, UniProt Q96DB2).
T4 sequence (Q96DB2 whole entry): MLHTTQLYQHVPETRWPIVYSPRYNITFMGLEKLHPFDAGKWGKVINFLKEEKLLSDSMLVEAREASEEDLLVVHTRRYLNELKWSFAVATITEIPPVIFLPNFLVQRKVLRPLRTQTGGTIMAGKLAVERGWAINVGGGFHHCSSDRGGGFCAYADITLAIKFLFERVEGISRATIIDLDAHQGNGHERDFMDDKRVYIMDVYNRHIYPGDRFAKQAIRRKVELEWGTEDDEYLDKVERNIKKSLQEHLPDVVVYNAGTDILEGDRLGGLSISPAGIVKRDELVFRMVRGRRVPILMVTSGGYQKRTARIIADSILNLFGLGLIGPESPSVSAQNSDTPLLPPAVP
Kind of experiment: Inhibition of HDAC11 (unknown origin).

Experiment [4] addresses T5, Polyamine deacetylase HDAC10 (Homo sapiens, UniProt Q969S8).
T5 sequence (Q969S8 whole entry): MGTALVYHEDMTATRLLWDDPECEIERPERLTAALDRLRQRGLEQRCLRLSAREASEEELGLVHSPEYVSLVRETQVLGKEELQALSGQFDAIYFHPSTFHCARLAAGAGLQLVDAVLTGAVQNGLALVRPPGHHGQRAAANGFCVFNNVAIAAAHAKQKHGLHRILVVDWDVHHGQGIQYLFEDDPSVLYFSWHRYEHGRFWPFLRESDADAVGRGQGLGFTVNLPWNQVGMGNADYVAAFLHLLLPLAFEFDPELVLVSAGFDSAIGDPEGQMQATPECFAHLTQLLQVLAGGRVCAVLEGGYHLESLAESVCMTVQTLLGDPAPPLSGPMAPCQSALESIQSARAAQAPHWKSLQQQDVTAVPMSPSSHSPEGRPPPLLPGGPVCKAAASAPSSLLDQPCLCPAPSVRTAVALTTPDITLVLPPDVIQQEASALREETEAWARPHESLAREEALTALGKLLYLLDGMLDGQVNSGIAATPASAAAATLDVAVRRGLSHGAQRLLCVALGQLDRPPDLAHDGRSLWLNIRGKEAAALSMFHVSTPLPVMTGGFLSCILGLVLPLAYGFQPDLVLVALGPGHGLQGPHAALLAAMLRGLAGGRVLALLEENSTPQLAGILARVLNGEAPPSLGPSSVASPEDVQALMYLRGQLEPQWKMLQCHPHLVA
Kind of experiment: Inhibition of HDAC10 (unknown origin).

Experiment [5] deals with T1, Histone deacetylase 1. The experiment in a line: Inhibition of N-terminal GST-tagged full length human HDAC1 expressed in baculovirus system using FTS as substrate preincubated for 10 mins followed by substrate addition and measured after 2 hrs by fluorescence based analysis.
Experiment [6] has as its target T6, Protein deacetylase HDAC6 (Homo sapiens, UniProt Q9UBN7).
T6 sequence (Q9UBN7 whole entry): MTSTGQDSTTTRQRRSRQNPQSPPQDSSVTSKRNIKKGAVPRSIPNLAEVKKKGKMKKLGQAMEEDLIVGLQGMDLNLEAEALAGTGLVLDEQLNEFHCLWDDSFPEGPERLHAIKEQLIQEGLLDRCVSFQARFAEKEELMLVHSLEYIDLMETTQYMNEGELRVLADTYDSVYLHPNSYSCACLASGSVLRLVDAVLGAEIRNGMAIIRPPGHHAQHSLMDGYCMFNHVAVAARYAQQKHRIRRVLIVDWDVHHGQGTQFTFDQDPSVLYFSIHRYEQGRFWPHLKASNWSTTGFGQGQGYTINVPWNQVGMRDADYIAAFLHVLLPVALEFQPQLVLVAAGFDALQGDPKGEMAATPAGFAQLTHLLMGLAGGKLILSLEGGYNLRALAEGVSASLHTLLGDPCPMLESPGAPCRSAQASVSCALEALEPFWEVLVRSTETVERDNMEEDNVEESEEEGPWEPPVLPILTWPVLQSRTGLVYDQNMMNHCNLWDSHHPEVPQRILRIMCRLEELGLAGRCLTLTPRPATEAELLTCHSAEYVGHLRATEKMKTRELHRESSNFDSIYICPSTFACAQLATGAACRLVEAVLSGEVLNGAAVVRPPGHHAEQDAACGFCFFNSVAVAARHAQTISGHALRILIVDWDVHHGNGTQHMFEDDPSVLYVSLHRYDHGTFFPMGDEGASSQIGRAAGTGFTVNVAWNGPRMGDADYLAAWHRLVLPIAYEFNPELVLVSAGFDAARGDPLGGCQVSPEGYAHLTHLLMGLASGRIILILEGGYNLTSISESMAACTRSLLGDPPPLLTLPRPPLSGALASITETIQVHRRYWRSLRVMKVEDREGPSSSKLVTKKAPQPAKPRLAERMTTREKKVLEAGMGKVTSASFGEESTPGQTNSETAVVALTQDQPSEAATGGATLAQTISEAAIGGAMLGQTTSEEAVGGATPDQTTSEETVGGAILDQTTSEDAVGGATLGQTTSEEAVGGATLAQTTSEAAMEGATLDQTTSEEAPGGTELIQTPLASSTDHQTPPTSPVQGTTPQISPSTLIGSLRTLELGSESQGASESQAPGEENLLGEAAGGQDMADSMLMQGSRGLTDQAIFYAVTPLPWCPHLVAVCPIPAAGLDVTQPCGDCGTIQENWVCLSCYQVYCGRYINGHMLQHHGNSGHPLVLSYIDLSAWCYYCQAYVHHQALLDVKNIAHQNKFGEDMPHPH
The experiment in a line: Inhibition of N-terminal GST-tagged full length human HDAC6 expressed in baculovirus system using FTS as substrate preincubated for 10 mins followed by substrate addition and measured after 2 hrs by fluorescence based analysis.

In experiment [7] the target is T3, Histone deacetylase 3. The experiment in a line: Inhibition of N-terminal GST-tagged full length human HDAC3 expressed in baculovirus system using FTS as substrate preincubated for 10 mins followed by substrate addition and measured after 2 hrs by fluorescence based analysis.
The target of experiment [8] is T2, Histone deacetylase 2. Kind of experiment: Inhibition of N-terminal GST-tagged full length human HDAC2 expressed in baculovirus system using FTS as substrate preincubated for 10 mins followed by substrate addition and measured after 2 hrs by fluorescence based analysis.
In another experiment the target is T7, Histone deacetylase 8 (Homo sapiens, UniProt Q9BY41).
T7 sequence (Q9BY41 whole entry): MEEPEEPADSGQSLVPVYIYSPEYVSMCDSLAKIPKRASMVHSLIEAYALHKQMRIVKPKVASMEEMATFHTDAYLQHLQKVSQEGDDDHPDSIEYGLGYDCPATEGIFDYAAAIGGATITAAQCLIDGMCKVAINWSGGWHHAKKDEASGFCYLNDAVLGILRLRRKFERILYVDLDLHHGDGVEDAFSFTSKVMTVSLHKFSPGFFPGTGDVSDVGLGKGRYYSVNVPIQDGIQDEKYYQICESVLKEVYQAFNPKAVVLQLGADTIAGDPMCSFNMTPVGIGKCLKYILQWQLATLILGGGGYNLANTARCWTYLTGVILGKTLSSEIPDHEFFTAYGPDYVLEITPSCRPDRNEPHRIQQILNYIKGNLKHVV
The experiment in a line: Inhibition of N-terminal GST-tagged full length human HDAC8 expressed in baculovirus system using FTS as substrate preincubated for 10 mins followed by substrate addition and measured after 2 hrs by fluorescence based analysis.

T3 sequence (O15379 whole entry): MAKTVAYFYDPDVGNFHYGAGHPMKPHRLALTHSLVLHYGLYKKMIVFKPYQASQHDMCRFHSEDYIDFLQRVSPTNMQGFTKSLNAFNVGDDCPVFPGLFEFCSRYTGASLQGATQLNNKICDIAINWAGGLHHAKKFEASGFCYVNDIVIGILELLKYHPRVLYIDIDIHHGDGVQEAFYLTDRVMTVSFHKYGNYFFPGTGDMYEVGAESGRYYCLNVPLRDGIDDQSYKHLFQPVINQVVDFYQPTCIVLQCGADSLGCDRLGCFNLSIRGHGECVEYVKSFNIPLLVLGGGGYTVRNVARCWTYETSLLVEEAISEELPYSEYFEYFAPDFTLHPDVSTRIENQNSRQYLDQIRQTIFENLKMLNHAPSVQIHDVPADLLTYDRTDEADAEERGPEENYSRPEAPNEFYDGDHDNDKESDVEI
T1 sequence (Q13547 whole entry): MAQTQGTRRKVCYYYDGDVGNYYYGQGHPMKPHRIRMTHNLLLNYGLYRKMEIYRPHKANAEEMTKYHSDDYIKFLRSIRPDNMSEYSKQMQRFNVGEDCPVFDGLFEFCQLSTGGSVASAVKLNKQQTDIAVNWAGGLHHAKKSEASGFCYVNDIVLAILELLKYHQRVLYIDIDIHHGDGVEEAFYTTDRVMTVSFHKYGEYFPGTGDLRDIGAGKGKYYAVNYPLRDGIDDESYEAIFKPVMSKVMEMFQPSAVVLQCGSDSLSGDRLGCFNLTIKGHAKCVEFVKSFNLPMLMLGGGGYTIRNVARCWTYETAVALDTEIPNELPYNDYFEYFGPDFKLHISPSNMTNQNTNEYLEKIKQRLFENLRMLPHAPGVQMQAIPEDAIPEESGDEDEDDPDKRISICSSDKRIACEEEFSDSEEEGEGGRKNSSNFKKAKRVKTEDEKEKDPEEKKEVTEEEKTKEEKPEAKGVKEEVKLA
T2 sequence (Q92769 whole entry): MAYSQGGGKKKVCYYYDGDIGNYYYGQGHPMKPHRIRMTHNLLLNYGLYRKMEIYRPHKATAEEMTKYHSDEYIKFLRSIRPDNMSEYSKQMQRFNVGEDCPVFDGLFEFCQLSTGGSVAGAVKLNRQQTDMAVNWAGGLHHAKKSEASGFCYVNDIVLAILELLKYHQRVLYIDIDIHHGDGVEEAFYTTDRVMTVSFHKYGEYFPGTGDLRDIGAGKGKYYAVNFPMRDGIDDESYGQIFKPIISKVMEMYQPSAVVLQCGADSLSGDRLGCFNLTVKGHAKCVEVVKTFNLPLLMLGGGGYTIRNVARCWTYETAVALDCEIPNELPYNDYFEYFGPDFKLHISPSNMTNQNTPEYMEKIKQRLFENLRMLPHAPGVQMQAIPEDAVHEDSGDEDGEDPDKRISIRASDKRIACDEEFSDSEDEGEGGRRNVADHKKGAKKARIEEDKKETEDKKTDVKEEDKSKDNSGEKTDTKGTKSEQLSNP

Broadly, the IC50 is the concentration that gives 50% inhibition. `CC(C)[C@H](N)C(=O)SCC/C=C/[C@@H]1CC(=O)NCc2nc(cs2)C(=O)NC(C)(C)C(=O)N[C@@H](C(C)C)C(=O)O1` [BOCODEPSIN BESYLATE]: the IC50 on Histone deacetylase 1 [1] was 1.2 nM; at Histone deacetylase 2 [2], 2.4 nM; at Histone deacetylase 3 [3], 2 nM.

On to `Nc1cc(F)ccc1NC(=O)c1ccc(CNC(=O)/C=C/c2cccnc2)cc1` [TUCIDINOSTAT], for which the IC50 was 432 nM at Histone deacetylase 11 and 78 nM in experiment [4].

For the compound `O=C(CCCCCCC(=O)N/N=C/c1ccc(N(c2ccccc2)c2ccccc2)cc1)NO`, the 50% inhibitory concentration (IC50) on Histone deacetylase 1 [5] was 8.35 nM; in [6], 0.4 nM; against Histone deacetylase 3 [7], 51.6 nM; against Histone deacetylase 2 [8] it was 15.4 nM; against Histone deacetylase 8 it was 1430 nM.

The values above are taken from ChEMBL document CHEMBL5344407, “Histone deacetylases (HDACs) as the promising immunotherapeutic targets for hematologic cancer treatment” (Eur J Med Chem, 2023).
